Assay results from patent US11903931B2, “Salts of selective estrogen receptor degraders” (InventisBio Co., Ltd., priority 2018, dated 2024).
Where a name gives a salt, the structure may show the parent alone.

Assays:
[1] = Dynamic moisture sorption analysis (DVS); format: physicochemical
Procedure: Dynamic moisture sorption analysis (DVS): DVS was determined using IGAsorp (Hiden Isochema, UK). The sample was tested at a targeted RH (relative humidity) of 10 to 90% full cycle in step mode. The analysis was performed in 10% RH increments.

[2] = Solubility test in pH 1.2 or pH 6.8 buffer (saturated solutions, HPLC; remaining solids by XRPD); format: physicochemical; settings: for XRPD analysis of remaining solids after solubility test: 24 hours, medium not stated; for XRPD patterns at 24 h: remaining solid
Procedure: For solubility test: About 20 mg of Compound FA, L-lysine salt and meglumine salt (Form I) were weighed into vials, added 3 mL of pH1.2 or pH 6.8 buffer to make saturated solutions. All suspensions were kept shaking with 200 rpm at room temperature for up to 24 hours. […] At 24 hours, remaining solids were collected and determined by XRPD.

[3] = tested on: ER+ breast cancer cells; settings: cited from earlier work
[4] = compared with fulvestrant, GDC-0810 and AZD9496; cited from earlier work
[5] = Solid stability test at 40° C./75% RH for 8 days (HPLC, XRPD); format: physicochemical; settings: for Physical and chemical stability / XRPD patterns after storage: 40° C./75% RH for 8 days; for Purity at 8 days / Purity at 0 day: HPLC; for Purity at 8 days: after 40° C./75% RH for 8 days; for Purity at 0 day: start of stability test
Procedure: HPLC ANALYSIS: a representative HPLC method is shown below, which can be used, for example, to analyze the purity, solubility, and stability of the salts herein.
For stability test: About 20 mg of Compound FA, L-lysine salt and meglumine salt (Form I) were weighed into vials, and put at the condition of 40° C./75% RH for 8 days. At 0 and 8 days, the solid sample was dissolved using acetonitrile/water (1/1) to make a solution with the concentration of 0.2 mg/mL. Sample solutions were analyzed by HPLC and solid samples were examined by XRPD.

[6] = Meglumine salt form interconversion study (slurry in IPA or water, XRPD); format: physicochemical; settings: for Final crystal form: Water
Procedure: Interconversion study: Interconversion studies were carried out by mixing the same amount of different form solids in IPA or water, respectively. Suspensions were kept stirring at room temperature and 60° C. for several days, during which suspensions were filtrated and analyzed by XRPD.

[7] = Solid stability test of Form I at 25° C./92.5% RH for 10 days (XRPD); format: physicochemical
Procedure: Solid stability test of Form I at 92.5% RH for 10 days: About 20 mg of meglumine salt Form I was put into the condition of 25° C./92.5% RH for 10 days. At 10 days, the sample was analyzed by XRPD.

[8] = Physical treatment (grinding) of Form I; format: physicochemical; settings: grinded for 2 min and 5 min
Procedure: Physical treatment of Form I: Form I of meglumine salt was grinded for 2 min and 5 min. After grinding, the crystallinity declined, but the crystal form was still Form I.

[9] = target: T1, ER (Homo sapiens, UniProt P03372); settings: intramuscular injection monthly; cited from earlier work
T1 sequence (P03372 1-595): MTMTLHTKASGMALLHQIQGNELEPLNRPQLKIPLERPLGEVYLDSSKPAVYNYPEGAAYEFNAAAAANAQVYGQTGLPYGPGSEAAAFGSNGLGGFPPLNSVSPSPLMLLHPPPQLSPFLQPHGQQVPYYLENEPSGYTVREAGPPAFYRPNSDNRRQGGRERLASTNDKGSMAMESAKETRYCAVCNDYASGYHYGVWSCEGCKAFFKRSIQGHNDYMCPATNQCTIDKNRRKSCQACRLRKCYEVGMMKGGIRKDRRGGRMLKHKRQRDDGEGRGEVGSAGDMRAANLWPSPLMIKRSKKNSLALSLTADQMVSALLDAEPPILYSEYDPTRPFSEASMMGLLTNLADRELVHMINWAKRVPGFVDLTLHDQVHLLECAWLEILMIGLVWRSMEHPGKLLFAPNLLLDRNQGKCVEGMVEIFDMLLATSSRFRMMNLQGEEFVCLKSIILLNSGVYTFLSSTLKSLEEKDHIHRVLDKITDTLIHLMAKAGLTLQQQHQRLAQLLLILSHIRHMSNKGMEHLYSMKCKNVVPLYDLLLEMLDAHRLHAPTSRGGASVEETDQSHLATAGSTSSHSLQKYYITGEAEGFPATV

SMILES	XRPD pattern after DVS test [1]	Moisture adsorbed (DVS) ([1]; at 80% RH)	XRPD analysis of remaining solids after solubility test [2]	Stability in pH 1.2 buffer solution (HPLC) ([2]; pH 1.2 buffer)	XRPD patterns at 24 h ([2]; pH 1.2 buffer)	XRPD patterns at 24 h ([2]; pH 6.8 buffer)	Growth of ER+ breast cancer cells [3]	Human hepatocyte clearance [4]	Physical and chemical stability [5]	XRPD patterns after storage [5]	Purity at 8 days [5]	Purity at 0 day [5]	Final crystal form ([6]; 25° C.)	Final crystal form ([6]; 60° C.)	Relative stability of crystal forms ([6]; in water at 60° C. and IPA)	Crystal form after storage (XRPD) [7]	Crystal form after grinding [8]	Crystallinity after grinding [8]	ER degradation in clinical samples [9]
C[C@@H]1Cc2c([nH]c3ccccc23)[C@@H](c2c(Cl)cc(/C=C/C(=O)O)cc2Cl)N1CC(C)(C)F [Compound FA, (E)-3-(3,5-dichloro-4-((1R,3R)-2-(2-fluoro-2-methylpropyl)-3-methyl-2,3,4,9-tetrahydro-1H-pyrido[3,4-b]indol-1-yl)phenyl)acrylic acid]	didn't change	about 1.7%	became lower	unstable	Low crystallinity	Low crystallinity	inhibited the growth	better human hepatocyte clearance	physically and chemically stable	not changed	96.31 Area %	98.02 Area %							
C[C@@H]1Cc2c([nH]c3ccccc23)[C@@H](c2c(Cl)cc(/C=C/C(=O)O)cc2Cl)N1CC(C)(C)F [Meglumine salt, Meglumine (E)-3-(3,5-dichloro-4-((1R,3R)-2-(2-fluoro-2-methylpropyl)-3-methyl-2,3,4,9-tetrahydro-1H-pyrido[3,4-b]indol-1-yl)phenyl)acrylate]			became lower	unstable	No change	Low crystallinity			physically and chemically stable	not changed	99.66 Area %	99.68 Area %	Dihydrate	Form I	most stable crystal form	remained unchanged	still Form I	declined	
C[C@]12CC[C@@H]3c4ccc(O)cc4C[C@@H](CCCCCCCCC[S+]([O-])CCCC(F)(F)C(F)(F)F)[C@H]3[C@@H]1CC[C@@H]2O (stereo partly drawn) [fulvestrant]																			~50%
